Read-outs that look alike come from different tables or passages of the source. Where a SMILES comes first, the peptide text is derived from it.
Columns and labels:
[1] = Minimum gelation concentration / hydrogel formation; type: physicochemical
Description: In order to determine the minimum gelation concentration in water, the depsipeptide was dissolved in MilliQ water.
Liskamp reported depsipetides based on the amylin (20-29) structure.

[2] = tested on: human mesenchymal stem cells (hMSCs); test: Cytocompatibility, WST-1 cell metabolic activity assay; type: cell-based; conditions: for cytocompatibility / tolerance: fragments particularly if the acidity was neutralized
Description: Human mesenchymal stem cells, hMSCs, were obtained from Lonza (Basel, Switzerland) and cultured in MSC growth medium (MSCGM) with 5% fetal bovine serum, 2% L-glutamine and 0.1% penicillin-streptomycin (Lonza). The cell metabolic activity was measured with the Cell Proliferation Reagent WST-1 assay (Roche Diagnostics, Mannheim, Germany). Briefly, 5000 hMSC cells were seeded in each well and media containing the sample was added to the desired concentration (n=6). After incubation for 72 hours at 37° C., the media was aspirated and media containing 10% WST-1 reagent added for 2 hours. The absorbance at 450 nm was measured subtracting the absorbance at 600 nm. The absorbance readings were further normalized against cells cultured in media containing an equivalent volume of PBS (i.e. 100% cell survival) to determine the percentage cell viability. Cells cultured with an equivalent volume of ethanol were used as a negative control (i.e. 100% cell death).
In order to determine depsipeptide cytotoxicity and effect on cell proliferation, human mesenchymal stem cells (hMSCs) were incubated with various concentrations of the depsipeptide and their metabolic activity and viability was tested after 3 days. Cell viability decreased with increasing depsipeptide concentration. […] To address concerns that the cytotoxicity could be attributed to the degradation products following hydrolysis of the ester bond, the possible degradation products, the peptide Ac-ILV and depsipeptide HO-aGK-NH2, were also evaluated.

[3] = 2 mg/mL in PBS
Description: In order to test the degradation ability of the depsipeptide, 2 mg/mL was dissolved in PBS puffer at pH 5.7, 7.3 and 8.5. All samples were incubated at 37° C. and analysed by HPLC-MS.
In order to characterize the degradation products of the depsipeptide Ac-ILV-OH and HO-aGK-NH2 were synthesized and the retention time was determined by HPLC-MS.

[4] = MilliQ water, depsipeptide sample left at room temperature

Ac-IK6-NH2: parent ultrashort self-assembling peptide Ac-ILVAGK-NH2, without α-hydroxy acid [reference compound]
minimum gelation concentration [1, 4]: 10 mg/mL

CC(O)C(=O)NCC(=O)N[C@@H](CCCCN)C(N)=O (some centres unmarked) [HO-aGK-NH2] (HELM PEPTIDE1{[CC(O)C(=O)[*:2]].G.K.[am]}$$$$V2.0)
concentration at which significant cytotoxicity was demonstrated ([2]; 3 days, WST-1): > 10000 µg/mL | cytocompatibility / tolerance ([2]; 3 days): extremely well tolerated

CC[C@H](C)[C@H](NC(C)=O)C(=O)N[C@@H](CC(C)C)C(=O)N[C@H](C(=O)O)C(C)C [Ac-ILV] (Ac-Ile-Leu-Val-OH)
cytocompatibility / tolerance ([2]; 3 days): extremely well tolerated

CC[C@H](C)[C@H](NC(C)=O)C(=O)N[C@@H](CC(C)C)C(=O)N[C@H](C(=O)OC(C)C(=O)NCC(=O)N[C@@H](CCCCN)C(N)=O)C(C)C (some centres unmarked) [Ac-ILVaGK-NH2, Acetylated isoleucine-leucine-valine-lactic acid-glycine-lysine] (HELM PEPTIDE1{[ac].I.L.V.[CC(O[*:1])C(=O)[*:2]].G.K.[am]}$$$$V2.0)
hydrogel formation ([1]; 100 mg/mL dissolved in 90% water, 10% 10xPBS added): instantaneous hydrogel formation | minimum gelation concentration [1, 4]: 100 mg/mL | minimum gelation concentration relative to parent peptide Ac-IK6-NH2 ([1]; in water as well as in 1xPBS buffer): about 10 times | minimum gelation concentration ([1]; with PBS buffer added (1x PBS)): 60 mg/mL | stability (degradation) ([3]; pH 5.7, 37° C., compared with pH 7.3 and 8.5): most | stability (degradation) ([3]; pH 8.5, 37° C., compared with pH 5.7 and 7.3): least stable | IC50 (cell viability) ([2]; 3 days (72 hours) incubation, WST-1): approximately 15 mg/mL
